Data as given in US20030229451A1, “Methods and systems for analyzing complex biological systems” (priority 2001, published 2003).

Columns and labels:
[1] = system: Arabidopsis thaliana; test: MOA1 gene expression profiling (22,000 gene array); details: for Regulated Genes: Down / Regulated Genes: Up: 1 hr, p < 0.5; for No. of Lethal Genes Altered: genes essential for plant growth and development
[2] = system: Arabidopsis thaliana; test: MOA1 biochemical (metabolite) profiling by LC-MS and GC-MS
[3] = system: Arabidopsis thaliana plants; test: SOA1 phenotypic analysis of herbicide-treated Arabidopsis (MIC, Tmic, leaf traits); type: in vivo; details: for characteristic morphological symptoms: herbicide-treated Arabidopsis; for leafCurling Dev. / leafTwisting Dev. / leafWidth Dev. / matureLeafAnthocyanins Dev. / matureLeafChlorosis Dev. / matureLeafNecrosis Dev. / newLeafAnthocyanins Dev. / newLeafChlorosis Dev. / newLeafNecrosis Dev. / pointedLeaves Dev.: numeric value standardized to mock treated; for tMic Dev.: time to full range of symptoms at MIC, coded
[4] = system: Magnaporthe grisea; type: cell-based
[5] = system: Saccharomyces cerevisiae wild type strain BY4743; test: AF1 metabolite analysis (GC-MS, LC-MS) of yeast cells treated with antifungal drugs; type: cell-based; details: P < 0.1; 2x MIC, two hours
[6] = system: Saccharomyces cerevisiae wild type strain BY4743; test: AF1 combined gene expression and metabolite mapping to reactions and pathways (KEGG); type: cell-based
From the text: The pathway score indicates how meaningful the mapping is, or how likely it is to be correctly indicative of the pathway involved in the perturbation under examination. The method provides a pathway score based on perturbation levels of genes and/or compounds and the information content of each gene and/or compound in the pathway, i.e., a pathway score indicates the extent to which other pathways are mapped to a gene/compound. For example, imagine that two genes are perturbed in a particular experiment. One gene maps to only one pathway, giving a high degree of probability that the perturbed pathway is the one identified in the mapping. The second gene maps to three pathways. In the later example, there is only one-third the probability that the pathway identified in the mapping is the one perturbed. The present invention provides a method for calculating the pathway scores, so that more weight is given to a score of a gene or compound that maps to only one pathway than to a score of a gene or compound that maps to multiple pathways. […] Where n=the total number of genes in the pathway; ipath—count=the number of pathways containing a gene; and j=the number of genes in the pathway that are perturbed. Another factor to be considered when weighting a pathway score is the degree of perturbation. Degree of perturbation can be calculated, for example, based on a number of standard deviations from a norm, and included in an equation such as the one shown above, so that not only the number of pathways is taken into account, but also accounts for the amount of gene transcript or compound present as compared to a control. The data were then combined to determine the number of reactions showing an enzyme and at least one compound perturbed, and to determine the number of pathways having at least one enzyme and one perturbed compound perturbed. The results of the analysis are represented in Tables 16 and 17, and were difficult to interpret, illustrating that the ability to draw conclusions from compound mapping to pathways is limited when absent additional data.

[7] = system: N-starved Arabidopsis plants; details: nitrate addition to N-starved plants; cited from earlier work
[8] = concentrations insufficient to inhibit growth

| SMILES | Regulated Genes: Down [1] | Regulated Genes: Up [1] | No. of Lethal Genes Altered [1] | Number of Metabolites Changed: (unknown #) ([2]; 20 min, p < 0.05) | Number of Metabolites Changed: Total # ([2]; 20 min, p < 0.05) | Number of Metabolites Changed: (unknown #) ([2]; 20 min, p < 0.11) | Number of Metabolites Changed: Total # ([2]; 20 min, p < 0.11) | Number of Metabolites Changed: (unknown #) ([2]; 1 hr, p < 0.05) | Number of Metabolites Changed: Total # ([2]; 1 hr, p < 0.05) | Number of Metabolites Changed: (unknown #) ([2]; 1 hr, p < 0.11) | Number of Metabolites Changed: Total # ([2]; 1 hr, p < 0.11) | leafCurling Dev. [3] | leafTwisting Dev. [3] | leafWidth Dev. [3] | matureLeafAnthocyanins Dev. [3] | matureLeafChlorosis Dev. [3] | matureLeafNecrosis Dev. [3] | newLeafAnthocyanins Dev. [3] | newLeafChlorosis Dev. [3] | newLeafNecrosis Dev. [3] | further results |
| --- | --- | --- | --- | --- | --- | --- | --- | --- | --- | --- | --- | --- | --- | --- | --- | --- | --- | --- | --- | --- | --- |
| COC(=O)NS(=O)(=O)c1ccc(N)cc1 [Asulam] | 7 | 80 | 5 | 3 | 9 | 5 | 14 | 7 | 10 | 11 | 18 |  |  |  |  |  |  |  |  |  |  |
| COc1nc(C)nc(NC(=O)NS(=O)(=O)c2ccccc2Cl)n1 [Chlorsulfuron] | 109 | 97 | 8 | 4 | 9 | 6 | 15 | 3 | 5 | 13 | 23 | 1 | 1 | −1 | 3 | 2 | 0 | 0 | 2 | 0 | characteristic morphological symptoms [3]: anthocyanin accumulation in the older leaves accompanied by chlorosis of the newly emerging leaves; pointedLeaves Dev. [3]: 0; tMic Dev. [3]: 2 |
| CP(=O)(O)CCC(N)C(=O)O (stereo not drawn) [Glufosinate] | 54 | 296 | 10 | 25 | 33 | 33 | 48 | 4 (4) | 4 (4) | 9 (9) | 9 (9) | 2 | 1 | −2 | 0 | 3 | 0 | 0 | 3 | 0 | characteristic morphological symptoms [3]: Chlorosis and leaf curling; pointedLeaves Dev. [3]: 1; tMic Dev. [3]: 1; nitrogen source utilization by M. grisea ([4]; in the presence of compound): only able to utilize glutamine and glutamate as nitrogen sources |
| O=C(O)CNCP(=O)(O)O [Glyphosate] |  |  |  | 2 | 4 | 9 | 13 | 9 | 16 | 24 | 46 | 0 | 0 | 0 | 3 | 1 | 3 | 1 | 2 | 0 | characteristic morphological symptoms [3]: anthocyanin accumulation in the older leaves accompanied by chlorosis of the newly emerging leaves; pointedLeaves Dev. [3]: 1; tMic Dev. [3]: 2; growth results for Tiers 3 and 4 compared to Unknown 4 ([4]; 250 μg/ml): nearly identical; growth inhibition of M. grisea ([4]; 1.0 mg/ml): remediated by inclusion of aromatic amino acids; tyrosine level ([2]; relative to the control): decreased |
| CS(=O)(=O)c1cc(C(F)(F)F)ccc1C(=O)c1cnoc1C1CC1 [Isoxaflutole] | 370 | 143 | 15 | 29 | 45 | 39 | 62 | 13 | 14 | 21 | 25 |  |  |  |  |  |  |  |  |  | growth of M. grisea in minimal media [4, 8]: unaffected; growth of M. grisea in minimal plus tyrosine media [4, 8]: inhibited; phenylalanine level ([2]; relative to the control): up-regulated; tyrosine level ([2]; relative to the control): up-regulated; Alpha-tocopherol level ([2]; relative to the control, early time points): not significantly changed |
| CC(=O)N1CCN(c2ccc(OCC3COC(Cn4ccnc4)(c4ccc(Cl)cc4Cl)O3)cc2)CC1 (stereo not drawn) [Ketoconazole] |  |  |  |  |  |  |  |  |  |  |  |  |  |  |  |  |  |  |  |  | # Compounds perturbed [5]: 15; # Reactions Having an Enzyme and at Least One Compound Perturbed [6]: 21; Number Of Pathways Having at Least One Enzyme and One Compound Perturbed (# Reactions) [6]: 24 |
| CCc1cccc(C)c1N(C(=O)CCl)C(C)COC (stereo not drawn) [Metolachlor] |  |  |  | 25 | 38 | 34 | 54 | 11 | 18 | 22 | 45 | 2 | 1 | −1 | 0 | 0 | 3 | 0 | 0 | 3 | pointedLeaves Dev. [3]: 1; tMic Dev. [3]: 2 |
| O=C(O)c1ccccc1C(=O)Nc1cccc2ccccc12 [Naptalam] | 47 | 50 | 3 | 11 | 28 | 16 | 39 | 9 | 13 | 23 | 46 |  |  |  |  |  |  |  |  |  |  |
| O=[N+]([O-])O [Nitrate] |  |  |  |  |  |  |  |  |  |  |  |  |  |  |  |  |  |  |  |  | Nitrate Regulation of Glutamate synthetase [7]: ↑; Nitrate Regulation of Glutamine synthetase (2) [7]: ↑; Nitrate Regulation of MADs Box (2) [7]: ↓; Nitrate Regulation of MYB transcription factor [7]: ↑; Nitrate Regulation of Malate Dehydrogenase [7]: ↑; Nitrate Regulation of Nitrate transporter [7]: ↑; Nitrate Regulation of Phosphate transporter [7]: ↑; Nitrate Regulation of Transaldolase [7]: ↑; Nitrate Regulation of Transketolase [7]: ↑ |
| C[n+]1ccc(-c2cc[n+](C)cc2)cc1 [Paraquat] |  |  |  | 5 | 9 | 9 | 14 | 15 | 22 | 31 | 50 | 2 | 0 | −1 | 0 | 1 | 4 | 0 | 1 | 4 | characteristic morphological symptoms [3]: rapid and widespread leaf necrosis; pointedLeaves Dev. [3]: 1; tMic Dev. [3]: 2 |
